Measured values from ChEMBL document CHEMBL4706582, “Design, synthesis and molecular docking study of α-triazolylsialosides as non-hydrolyzable and potent CD22 ligands” (Eur J Med Chem, 2020).

How the values were obtained:
B-cell receptor CD22 = target: T1, B-cell receptor CD22 (Homo sapiens, UniProt P20273); experiment: Binding affinity to recombinant human CD22d1-3-Fc expressed in 293T cells by surface plasmon resonance assay; set-up: species or system HEK293T
T1 sequence (P20273 whole entry): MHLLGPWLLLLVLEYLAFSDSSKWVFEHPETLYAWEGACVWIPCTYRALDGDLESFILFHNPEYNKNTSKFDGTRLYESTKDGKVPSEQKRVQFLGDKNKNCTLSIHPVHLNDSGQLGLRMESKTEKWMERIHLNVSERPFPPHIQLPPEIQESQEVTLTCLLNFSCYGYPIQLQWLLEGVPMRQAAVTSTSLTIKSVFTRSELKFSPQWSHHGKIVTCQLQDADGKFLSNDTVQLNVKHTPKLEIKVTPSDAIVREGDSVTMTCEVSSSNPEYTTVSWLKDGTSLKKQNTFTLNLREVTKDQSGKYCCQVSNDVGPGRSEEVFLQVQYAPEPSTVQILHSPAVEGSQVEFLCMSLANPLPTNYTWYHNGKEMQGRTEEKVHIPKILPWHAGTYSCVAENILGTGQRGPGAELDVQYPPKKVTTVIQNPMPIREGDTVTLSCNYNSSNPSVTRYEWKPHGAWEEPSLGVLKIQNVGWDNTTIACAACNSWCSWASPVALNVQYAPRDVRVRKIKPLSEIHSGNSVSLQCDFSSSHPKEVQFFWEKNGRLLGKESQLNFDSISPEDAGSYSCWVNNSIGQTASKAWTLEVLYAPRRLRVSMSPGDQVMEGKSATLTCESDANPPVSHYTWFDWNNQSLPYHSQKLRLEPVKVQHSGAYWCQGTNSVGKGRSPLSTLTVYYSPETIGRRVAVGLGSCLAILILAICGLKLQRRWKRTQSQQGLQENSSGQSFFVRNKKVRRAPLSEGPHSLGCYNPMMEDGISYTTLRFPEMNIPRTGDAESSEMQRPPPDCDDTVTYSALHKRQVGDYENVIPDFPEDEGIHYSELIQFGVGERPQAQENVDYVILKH

[1] = target: T2, Myelin-associated glycoprotein (Homo sapiens, UniProt P20916); experiment: Binding affinity to human MAG by surface plasmon resonance assay
T2 sequence (P20916 whole entry): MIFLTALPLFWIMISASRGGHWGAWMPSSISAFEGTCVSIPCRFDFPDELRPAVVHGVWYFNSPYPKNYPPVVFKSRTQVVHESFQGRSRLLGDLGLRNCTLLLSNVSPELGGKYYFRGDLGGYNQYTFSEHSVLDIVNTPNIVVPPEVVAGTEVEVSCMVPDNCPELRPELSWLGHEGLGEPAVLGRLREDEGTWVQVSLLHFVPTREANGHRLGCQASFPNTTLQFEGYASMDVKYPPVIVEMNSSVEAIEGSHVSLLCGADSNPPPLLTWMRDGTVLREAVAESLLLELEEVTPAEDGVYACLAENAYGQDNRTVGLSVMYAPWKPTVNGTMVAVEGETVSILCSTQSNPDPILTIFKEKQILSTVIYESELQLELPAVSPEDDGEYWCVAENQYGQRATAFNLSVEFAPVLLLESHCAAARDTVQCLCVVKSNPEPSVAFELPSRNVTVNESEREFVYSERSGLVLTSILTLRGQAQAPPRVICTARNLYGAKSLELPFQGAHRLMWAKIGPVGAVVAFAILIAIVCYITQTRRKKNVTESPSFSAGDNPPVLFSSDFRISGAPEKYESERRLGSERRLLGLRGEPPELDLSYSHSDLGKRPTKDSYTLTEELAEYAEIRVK

Homo sapiens = species: Homo sapiens; experiment: Selectivity index, ratio of Kd for human MAG to Kd for human CD22

| SMILES | Kd (B-cell receptor CD22) [nM] | Kd [1] [nM] | Selectivity Index (Homo sapiens) |
| --- | --- | --- | --- |
| O=C(Cc1ccc(-c2ccc(O)cc2)cc1)NC[C@@H](O)[C@@H](O)[C@@H]1O[C@](C(=O)O)(n2cc(CC3CCCCC3)nn2)C[C@H](O)[C@H]1NC(=O)CO | 766 | – | – |
| O=C(Cc1ccc(-c2ccc(O)cc2)cc1)NC[C@@H](O)[C@@H](O)[C@@H]1O[C@](C(=O)O)(n2cc(Cc3ccccc3)nn2)C[C@H](O)[C@H]1NC(=O)CO | 952 | – | – |
| O=C(Cc1ccc(-c2ccc(O)cc2)cc1)NC[C@@H](O)[C@@H](O)[C@@H]1O[C@](C(=O)O)(n2cc(COC3CCCCC3)nn2)C[C@H](O)[C@H]1NC(=O)CO | 860 | – | – |
| O=C(CCCC[C@H]1SC[C@H]2NC(=O)N[C@H]21)NCCOCCOCCOCCn1cc(-c2ccc(CO[C@]3(C(=O)O)C[C@H](O)[C@@H](NC(=O)CO)[C@H]([C@H](O)[C@H](O)CNC(=O)Cc4ccc(-c5ccc(O)cc5)cc4)O3)cc2)nn1 | 740 | – | – |

These reach a lower Kd (B-cell receptor CD22). Values come first.

| Kd (B-cell receptor CD22) [nM] | Kd [1] [nM] | Selectivity Index (Homo sapiens) | SMILES |
| --- | --- | --- | --- |
| 620 | – | – | O=C(Cc1ccc(-c2ccc(O)cc2)cc1)NC[C@@H](O)[C@@H](O)[C@@H]1O[C@](C(=O)O)(n2cc(-c3ccc(-c4ccccc4)cc3)nn2)C[C@H](O)[C@H]1NC(=O)CO |
| 628 | – | – | C#Cc1ccc(CO[C@]2(C(=O)O)C[C@H](O)[C@@H](NC(=O)CO)[C@H]([C@H](O)[C@H](O)CNC(=O)Cc3ccc(-c4ccc(O)cc4)cc3)O2)cc1 |
| 458 | 56400 | 123 | O=C(Cc1ccc(-c2ccc(O)cc2)cc1)NC[C@@H](O)[C@@H](O)[C@@H]1OC(OCc2ccccc2)(C(=O)O)CC(O)[C@H]1NC(=O)CO (single isomer, unassigned) |
| 335 | 30700 | 91.6 | O=C(Cc1ccc(-c2ccc(O)cc2)cc1)NC[C@@H](O)[C@@H](O)[C@@H]1O[C@](C(=O)O)(n2cc(-c3ccccc3)nn2)C[C@H](O)[C@H]1NC(=O)CO |
